Experimental data published in doi:10.1101/283176v2 (biorxiv, 2018).

Target: LeuT (Aquifex aeolicus, UniProt O67854)
Assay: scintillation proximity assay, displacement of [3H]leucine by alanine
Details: Na+ at its K0.5 (11.2 mM), pH 7.4 binding buffer, DDM

C[C@H](N)C(=O)O [alanine]
KI-ala: 2.56 ± 0.51 µM
